Reference: patent US10287328B2, “Treatment of diabetes, toll-like receptor 4 modulators and methods for using the same” (KeMyth Biotech Co., Ltd., priority 2016, dated 2019)

Experiments:
[1] = tested on: HUVECs; experiment: Cell apoptosis, TUNEL assay in HUVECs; type: cell-based, human; conditions: compared to control cells
Protocol: Cell apoptosis was detected by using commercial terminal deoxynucleotidyl transferase-dUTP nick end labeling (TUNEL) and caspase-3 activity kits, i.e., Apo-BrdU in Situ DNA Fragmentation Assay Kit (BioVision) and NucView™ 488 Caspase-3 Enzyme Substrate (Biotium). In brief, after incubation with M199 media in the presence or absence of […] various PLY peptides, at 37° C., 5% CO2 for 1 hour, HUVECs were washed with PBS and fixed with fixation buffer on ice for 20 min. Cells were then soaked in 70% alcohol for 1 hr. After 2 times of wash by washing buffer, cells were incubated in DNA labeling solution for 60 min at 37° C. Cells were then treated with rinse buffer and incubated with antibody buffer for 30 min at room temperature. The cell nuclei were stained with propidium iodide for 30 min. Samples were observed by fluorescent microscopeand photographed charge-coupled device (CCD) camera.

[2] = Serum insulin level (sandwich ELISA) in HFD-induced, STZ-injected type 2 diabetic rats; type: in vivo, Sprague-Dawley rats; conditions: STZ-injected HFD-fed rats, 2 mg/kg/3 days i.p. for 30 days, compared to STZ+vehicle
Protocol: The Sprague-Dawley rats were allocated to two dietary regimens by feeding either normal or HFD ad libitum, for the initial period of 2 weeks. After 2 weeks of dietary manipulation, the group of rats fed HFD were injected intraperitoneally (i.p.) with a low dose of STZ (35 mg/kg b.w.), while the respective control rats were given vehicle citrate buffer (pH 4.5) in a dose volume of 1 mL/kg, i.p. Seven days after STZ injection, rats were screened for blood glucose levels. Overnight fasted (10-12 hours) animals were given glucose (3 g/kg b.w.) by gastric intubation. After 2 hours of oral administration, blood samples were taken from lateral tail vein, left to coagulate and centrifuged; then serum glucose concentration was measured. Rats having serum glucose ≥200 mg/dL after 2 hours of glucose intake were considered diabetic and selected for further pharmacological studies. The rats were allowed to continue to feed on their respective diets until the end of the study (16). […]
(§1) The levels of insulin, sICAM-1, sVCAM-1, and E-selectin in serum were determined by using sandwich ELISA (R&D) according to manufacturer's protocols.

[3] = tested on: sICAM-1, sVCAM-1, sE-selectin; experiment: Serum sICAM-1, sVCAM-1 and sE-selectin (ELISA) in HFD-induced type 2 diabetic rats; type: in vivo, Sprague-Dawley rats; conditions: STZ-injected HFD-fed rats, compared to STZ+vehicle
Protocol: The Sprague-Dawley rats were allocated to two dietary regimens by feeding either normal or HFD ad libitum, for the initial period of 2 weeks. After 2 weeks of dietary manipulation, the group of rats fed HFD were injected intraperitoneally (i.p.) with a low dose of STZ (35 mg/kg b.w.), while the respective control rats were given vehicle citrate buffer (pH 4.5) in a dose volume of 1 mL/kg, i.p. Seven days after STZ injection, rats were screened for blood glucose levels. Overnight fasted (10-12 hours) animals were given glucose (3 g/kg b.w.) by gastric intubation. After 2 hours of oral administration, blood samples were taken from lateral tail vein, left to coagulate and centrifuged; then serum glucose concentration was measured. Rats having serum glucose ≥200 mg/dL after 2 hours of glucose intake were considered diabetic and selected for further pharmacological studies. The rats were allowed to continue to feed on their respective diets until the end of the study (16).
The experimental animals were divided into three groups, each group comprising six rats designated as follows: (1) group 1 served as control rats (non-DM control); (2) group 2 served as diabetic control rats (STZ+vehicle); and (3) group 3 served as diabetic treatment rats administered with C70PLY4 (2 mg/kg/3 days) in aqueous suspension i.p. for 30 days (STZ+C70PLY4). By the end of the experiment, animals were sacrificed and blood samples, muscle and liver were obtained.
as §1

QDLTAHFTTSIPLKGNVRNLSVKIRECTGLAWEWWRTVYEKTDLPLVRKRTISIWGTTLYPQVEDKVEND [C70PLY4]
apoptotic potential, TUNEL assay [1]: no apoptotic potential | blood insulin levels [2]: increased blood insulin levels | serum sE-selectin level [3]: decreased | serum sICAM-1 level [3]: decreased sICAM-1 | serum sVCAM-1 level [3]: decreased
